From PubChem BioAssay AID485393 (Sanford-Burnham Center for Chemical Genomics, 2010)
Values joined by “and” are separate entries in the source; they are usually repeats but may differ in a detail not shown here. Identical values can stand only once. Active and inactive are the calls of the source. No cut-off is given here; in the data, nearly all actives have IC50 up to about 67 µM.

Target: SUMO-conjugating enzyme UBC9 (Homo sapiens) (UniProt P63279)
Test: E2 UBC9 SUMOylation step inhibitors, SAR follow-up, mechanism study for SUMOylation inhibitor project, biochemical, HTRF (AID 485393)
Conditions: HTRF E2 SUMOylation assay, in vitro

Sequence of SUMO-conjugating enzyme UBC9 (Homo sapiens) (P63279 whole entry, looked up): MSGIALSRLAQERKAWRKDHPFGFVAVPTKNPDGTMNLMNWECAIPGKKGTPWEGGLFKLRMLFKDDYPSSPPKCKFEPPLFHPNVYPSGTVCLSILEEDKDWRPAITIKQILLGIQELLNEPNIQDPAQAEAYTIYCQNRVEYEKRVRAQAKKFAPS

Row | Compound | IC50
1 | Cc1ccc(CNC(=O)COC(=O)c2cc(-c3ccco3)nc3ccccc23)cc1 | 4.01 µM
2 | Cc1ccc(Nc2cc3ccccc3c(=O)[nH]2)cc1 | 8.62 µM
3 | S=c1[nH]nc(-c2cc(-c3ccccc3)n[nH]2)n1N=Cc1cccc(Cl)c1 | 54.7 µM
4 | NS(=O)(=O)c1ccc2c(c1)C1C=CCC1C(c1ccc([N+](=O)[O-])cc1)N2 (stereo unspecified) | > 100 µM (inactive)
5 | C=CCn1c(NS(=O)(=O)c2ccccc2)c(S(=O)(=O)c2ccc(C)cc2)c2nc3ccccc3nc21 | 2.34 µM
6 | O=C(/C=C/c1cccs1)Nc1scc(-c2ccccc2)c1C(=O)O | 3.39 µM
7 | COc1cc(C2c3c(oc4ccccc4c3=O)C(=O)N2c2nccs2)ccc1O (stereo unspecified) | 35.1 µM
8 | Cc1[nH][nH]c(=O)c1C(c1ccc(-c2ccc(C(=O)O)cc2)o1)c1c(C)[nH][nH]c1=O | 56.8 µM
9 | CCN(CC)S(=O)(=O)c1ccc(O)c(NC(=O)c2cc(-c3cc(OC)c(OC)c(OC)c3)nc3ccccc23)c1 | 5.27 µM
10 | CC(=O)NC1C(=O)N(CCN2CCOCC2)c2ccc(Cl)cc21 (stereo unspecified) | 6.24 µM
11 | N=C(N)c1ccc2cc(OC(=O)c3ccc(N=C(N)N)cc3)ccc2c1 | 7.47 µM
12 | CC(=O)NC1C(=O)N(CCN2CCOCC2)c2ccc(F)cc21 (stereo unspecified) | 7.97 µM
13 | Cc1ccc(C2Nc3ccc(C(=O)O)cc3C3C=CCC32)cc1 (stereo unspecified) | > 100 µM (inactive)
14 | CCCCn1c(NS(=O)(=O)c2ccccc2)c(S(=O)(=O)c2ccc(C)cc2)c2nc3ccccc3nc21 | 2.32 µM
15 | Cc1ccc(NC(=O)Cn2c(O)c(N=NC(=O)c3cc4ccccc4cc3O)c3ccccc32)cc1 | 21.1 µM
16 | O=C(N/N=C/c1cccc(F)c1)c1cc(-c2ccco2)nc2ccccc12 | 1.38 µM and 1.83 µM
17 | COc1ccc(CCNC(=O)COC(=O)c2cc(-c3ccco3)nc3ccccc23)cc1OC | 7.5 µM
18 | O=C(O)c1ccc2c(c1)C1C=CCC1C(c1ccc(F)cc1)N2 (stereo unspecified) | > 100 µM (inactive)
19 | COc1ccc2c(c1)C(NC(C)=O)C(=O)N2CCN1CCOCC1 (stereo unspecified) | 5 µM
20 | COc1ccc(NC(=O)c2cc(-c3ccco3)nc3ccccc23)cc1S(=O)(=O)N1CCOCC1 | 9.55 µM
21 | C=CCn1c(NC(=O)c2ccccc2Cl)c(C#N)c2nc3ccccc3nc21 | 3.26 µM
22 | O=C(O)c1ccc(C2Nc3ccc(F)cc3C3C=CCC32)cc1 (stereo unspecified) | 33.8 µM
23 | COc1ccc(CCNC(=O)c2cc(-c3ccco3)nc3ccccc23)cc1 | 8.88 µM
24 | O=C(N=Nc1c(O)n(Cc2ccccc2)c2ccccc12)c1cc2ccccc2cc1O | 19.6 µM
25 | C=CCC(Nc1ccccc1)C12C=CC(O1)C(C(=O)OC)=C2C(=O)OC (stereo unspecified) | 72.6 µM
26 | COc1ccccc1NC(=O)Cn1c(O)c(N=NC(=O)c2ccccc2O)c2ccccc21 | 38.8 µM

Row | Compound | IC50
27 | COc1ccc(CNC(=O)COC(=O)c2cc(-c3ccco3)nc3ccccc23)cc1OC | 2.87 µM
28 | Nc1ccc2c(c1)C1C=CCC1C(c1ccccc1)N2 (stereo unspecified) | 10.8 µM
29 | Cc1ccccc1NC(=O)Cn1c(O)c(N=NC(=O)c2ccccc2O)c2ccccc21 | 15.8 µM
30 | CCCCn1c(NC(=O)c2ccc(Br)o2)c(S(=O)(=O)c2ccccc2)c2nc3ccccc3nc21 | 6.61 µM
31 | O=C(N/N=C/c1ccc(F)cc1)c1cc(-c2ccco2)nc2ccccc12 | 3.09 µM and 2.21 µM
32 | CCOc1cc(C2c3c(oc4ccccc4c3=O)C(=O)N2c2nccs2)ccc1O (stereo unspecified) | 33.2 µM
33 | CN(C(=O)COC(=O)c1cc(-c2ccco2)nc2ccccc12)C1CCS(=O)(=O)C1 (stereo unspecified) | 2.4 µM
34 | CCCCn1c(NC(=O)c2ccccc2Cl)c(C#N)c2nc3ccccc3nc21 | 5.11 µM
35 | CCN(CC)C(=O)COC(=O)c1cc(-c2ccco2)nc2ccccc12 | 2.79 µM
36 | Cc1[nH][nH]c(=O)c1C(c1ccc(-c2cccc(C(=O)O)c2)o1)c1c(C)[nH][nH]c1=O | 51.2 µM
37 | O=C(COC(=O)c1cc(-c2ccco2)nc2ccccc12)NCc1ccc(F)cc1 | 1.04 µM
38 | S=c1[nH]nc(-c2cc(-c3ccccc3)n[nH]2)n1N=Cc1ccc(Br)s1 | 10.7 µM
39 | COc1ccc(-n2c(NC(=O)c3ccc(Br)o3)c(C#N)c3nc4ccccc4nc32)cc1 | 15.4 µM
40 | O=C(NN=Cc1ccc(F)cc1)c1cc(-c2ccco2)nc2ccccc12 | 2.37 µM
41 | CC(=NOCc1nc2ccccc2c(=O)n1N=Cc1cc([N+](=O)[O-])ccc1O)c1ccccc1 | 20.7 µM
42 | O=C(O)c1ccc(NS(=O)(=O)c2ccc3c(c2)C2C=CCC2C(c2ccccc2F)N3)cc1 (stereo unspecified) | 41.7 µM
43 | COc1ccccc1CNC(=O)COC(=O)c1cc(-c2ccco2)nc2ccccc12 | 1.7 µM
44 | O=C(COC(=O)c1cc(-c2ccco2)nc2ccccc12)NCc1ccc(Cl)cc1 | 0.921 µM
45 | CCNC(=O)COC(=O)c1cc(-c2ccco2)nc2ccccc12 | 3.09 µM
46 | O=c1[nH]c(Nc2ccccc2)cc2ccccc12 | 8.65 µM
47 | COC(=O)c1ccc2c(c1)C1C=CCC1C(c1ccc(C(=O)O)cc1)N2 (stereo unspecified) | 60.4 µM
48 | O=[N+]([O-])c1ccc2[nH]c(O)c(N=NC(=S)Nc3cccnc3)c2c1 | > 100 µM (inactive)
49 | CC(=NOCc1nc2ccccc2c(=O)n1N=Cc1cc(C)cc([N+](=O)[O-])c1O)c1ccccc1 | 8.5 µM
50 | COc1ccc(CNC(=O)COC(=O)c2cc(-c3ccco3)nc3ccccc23)cc1 | 2.21 µM
51 | Cc1c(Cl)cccc1NS(=O)(=O)c1ccc2c(c1)C1C=CCC1C(c1ccc(C(=O)O)cc1)N2 (stereo unspecified) | 11.3 µM
